Experimental data as given in ChEMBL document CHEMBL1201862, “PubChem BioAssay data set” (2004).
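Five concentrations, 48 hours, 96-well plates. At the GI50, growth is halved.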 The source made the active and inactive calls. Rule as the data show it: active = GI50 up to about 1.1 µM and inactive = higher.

Key:
Experiment in all cases: NCI-60 cell line screen, 48 h
SK-MEL-2 = test system: SK-MEL-2
U-251 = test system: U-251
SF-268 = test system: SF-268
SNB-19 = test system: SNB-19
K562 = test system: K562
IGROV-1 = test system: IGROV-1
NCI-H23 = test system: NCI-H23
SNB-75 = test system: SNB-75
MCF7 = test system: MCF7
LOX IMVI = test system: LOX IMVI
SF-539 = test system: SF-539
SW-620 = test system: SW-620
UACC-62 = test system: UACC-62
SK-MEL-5 = test system: SK-MEL-5
CCRF-CEM = test system: CCRF-CEM
A498 = test system: A498
HOP-92 = test system: HOP-92
BT-549 = test system: BT-549
CAKI-1 = test system: CAKI-1
SF-295 = test system: SF-295

Structure (SMILES)	GI50 (SK-MEL-2)	GI50 (U-251)	GI50 (SF-268)	GI50 (SNB-19)	GI50 (K562)	GI50 (IGROV-1)	GI50 (NCI-H23)	GI50 (SNB-75)	GI50 (MCF7)	GI50 (LOX IMVI)	GI50 (SF-539)	GI50 (SW-620)	GI50 (UACC-62)	GI50 (SK-MEL-5)	GI50 (CCRF-CEM)	GI50 (A498)	GI50 (HOP-92)	GI50 (BT-549)	GI50 (CAKI-1)	GI50 (SF-295)
COc1cccc2nc3c(C(=O)NCCN(C)C)cccc3cc12	4.13 µM (inactive)	1.44 µM (inactive)	3.24 µM (inactive)	2.35 µM (inactive)	1.95 µM (inactive)	1.88 µM (inactive)	1.17 µM (inactive)	4.88 µM (inactive)	1.12 µM (active)	0.771 µM (active)	1.85 µM (inactive)	1.09 µM (active)	2.23 µM (inactive)	1.41 µM (inactive)	0.518 µM (active)	0.307 µM (active)	1.21 µM (inactive)	2.57 µM (inactive)	0.619 µM (active)	2.12 µM (inactive)
CC(=O)OCc1cc2ccccc2nc1C(Br)(Br)Br	18.5 µM (inactive)	14 µM (inactive)	17.8 µM (inactive)	20.1 µM (inactive)	18 µM (inactive)	12 µM (inactive)	13.6 µM (inactive)	14.6 µM (inactive)	14.7 µM (inactive)	11.1 µM (inactive)	21.1 µM (inactive)	18.7 µM (inactive)	15.5 µM (inactive)	11.1 µM (inactive)	10.9 µM (inactive)	21.2 µM (inactive)	11.7 µM (inactive)	10.4 µM (inactive)	15.7 µM (inactive)	16.4 µM (inactive)
CC1CNC(c2ccc(CN3CCC(CCCC4CCN(Cc5ccc(C6=NC(C)CN6)cc5)CC4)CC3)cc2)=N1 (stereo not given)	21.7 µM (inactive)	35 µM (inactive)	> 100 µM (inactive)	24.5 µM (inactive)	35 µM (inactive)	> 100 µM (inactive)	> 100 µM (inactive)	23.4 µM (inactive)	19.8 µM (inactive)	82.4 µM (inactive)	29.6 µM (inactive)	30.5 µM (inactive)	59.8 µM (inactive)	> 100 µM (inactive)	19.5 µM (inactive)	> 100 µM (inactive)	26 µM (inactive)	> 100 µM (inactive)	> 100 µM (inactive)	> 100 µM (inactive)
Cc1c2ncccc2c(C)c2c1[nH]c1ccc(O)cc12	18.5 µM (inactive)	2.4 µM (inactive)	4.94 µM (inactive)	6.61 µM (inactive)	3.44 µM (inactive)	3.89 µM (inactive)	6.58 µM (inactive)	4.07 µM (inactive)	2.65 µM (inactive)	1.71 µM (inactive)	6.55 µM (inactive)	2.8 µM (inactive)	10.2 µM (inactive)	7.24 µM (inactive)	1.33 µM (inactive)	13.3 µM (inactive)	4.54 µM (inactive)	13.7 µM (inactive)	3.32 µM (inactive)	2.48 µM (inactive)
COC(=O)C1=CON2C3CC4CC(C3)CC(C4)C12C (stereo not given)	> 100 µM (inactive)	> 100 µM (inactive)	> 100 µM (inactive)	> 100 µM (inactive)	> 100 µM (inactive)	> 100 µM (inactive)	> 100 µM (inactive)	> 100 µM (inactive)	> 100 µM (inactive)	> 100 µM (inactive)	> 100 µM (inactive)	> 100 µM (inactive)	> 100 µM (inactive)	> 100 µM (inactive)	> 100 µM (inactive)	> 100 µM (inactive)	> 100 µM (inactive)	> 100 µM (inactive)	> 100 µM (inactive)	> 100 µM (inactive)
Cc1ccc(-c2cc(-c3ccc(Cl)cc3)nc(/N=C3\C(=O)N(CN(C)C)c4ccccc43)n2)cc1	31.4 µM (inactive)	55 µM (inactive)	89.9 µM (inactive)	> 100 µM (inactive)	27.3 µM (inactive)	53.5 µM (inactive)	33.6 µM (inactive)	57.8 µM (inactive)	37.3 µM (inactive)	24.2 µM (inactive)	> 100 µM (inactive)	12.9 µM (inactive)	97.1 µM (inactive)	48.4 µM (inactive)	14.9 µM (inactive)	> 100 µM (inactive)	98.9 µM (inactive)	78.5 µM (inactive)	87.9 µM (inactive)	> 100 µM (inactive)
COC(=O)[C@@H]1COC(=O)N1	> 100 µM (inactive)	> 100 µM (inactive)	> 100 µM (inactive)	> 100 µM (inactive)	> 100 µM (inactive)	> 100 µM (inactive)	> 100 µM (inactive)	> 100 µM (inactive)	> 100 µM (inactive)	> 100 µM (inactive)	> 100 µM (inactive)	> 100 µM (inactive)	> 100 µM (inactive)	> 100 µM (inactive)	> 100 µM (inactive)	> 100 µM (inactive)	> 100 µM (inactive)	> 100 µM (inactive)	> 100 µM (inactive)	> 100 µM (inactive)
COc1c(OC(C)=O)c(OC(C)=O)cc2c1-c1ccc(OC)c(=O)cc1C(NC(C)=O)CC2 (stereo not given)	0.0186 µM (active)	0.0321 µM (active)	0.0218 µM (active)	0.0336 µM (active)	< 0.0123 µM (active)	0.0254 µM (active)	0.0199 µM (active)	< 0.01 µM (active)	< 0.01 µM (active)	< 0.0147 µM (active)	< 0.0122 µM (active)	< 0.0125 µM (active)	< 0.01 µM (active)	0.0116 µM (active)	0.013 µM (active)	0.0513 µM (active)	0.0173 µM (active)	> 100 µM (inactive)	0.054 µM (active)	0.0424 µM (active)
COc1cc(CC(C)C(C)Cc2ccc(O)c(OC)c2)ccc1O (stereo not given) [DIHYDROGUAIARETIC ACID]	9.68 µM (inactive)	14.8 µM (inactive)	15.7 µM (inactive)	21.8 µM (inactive)	15 µM (inactive)	12.7 µM (inactive)	16.9 µM (inactive)	14.2 µM (inactive)	17.9 µM (inactive)	11.5 µM (inactive)	31.8 µM (inactive)	18.2 µM (inactive)	16.7 µM (inactive)	8.55 µM (inactive)	13.3 µM (inactive)	18.5 µM (inactive)	11.7 µM (inactive)	15.1 µM (inactive)	16.9 µM (inactive)	17.2 µM (inactive)
